# In PMC7344628, “Bone-Seeking Matrix Metalloproteinase Inhibitors for the Treatment of Skeletal Malignancy” (Pharmaceuticals, 2020):
# Like-named read-outs stand apart in the source and are kept apart here.
# Legend:
# Assay in all cases: fluorogenic peptide substrate assay
# Format in all cases: biochemical
# MMP-8 = target: T1, MMP-8 (Homo sapiens, UniProt P22894)
# T1 construct: gene MMP8
# Description: fluorogenic peptide substrate assay on MMP-8
# MMP-9 = target: T2, MMP-9 (Homo sapiens, UniProt P14780)
# T2 construct: gene MMP9
# T2 sequence (P14780 107-444 limits assumed): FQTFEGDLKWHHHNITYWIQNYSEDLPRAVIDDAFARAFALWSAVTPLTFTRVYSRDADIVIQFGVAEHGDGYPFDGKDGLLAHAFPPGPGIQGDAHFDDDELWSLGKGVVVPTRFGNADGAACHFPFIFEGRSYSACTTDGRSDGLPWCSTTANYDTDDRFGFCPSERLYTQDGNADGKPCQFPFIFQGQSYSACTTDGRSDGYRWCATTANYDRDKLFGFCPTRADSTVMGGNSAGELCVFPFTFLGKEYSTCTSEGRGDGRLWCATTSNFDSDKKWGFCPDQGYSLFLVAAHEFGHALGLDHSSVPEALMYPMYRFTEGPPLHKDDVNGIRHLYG
# Description: fluorogenic peptide substrate assay on MMP-9
# MMP-13 = target: T3, MMP-13 (Homo sapiens, UniProt P45452)
# T3 construct: gene MMP13
# Description: fluorogenic peptide substrate assay on MMP-13
# MMP-2 = target: T4, MMP-2 (Homo sapiens, UniProt P08253)
# T4 construct: gene MMP2
# T4 sequence (P08253 110-446 limits assumed): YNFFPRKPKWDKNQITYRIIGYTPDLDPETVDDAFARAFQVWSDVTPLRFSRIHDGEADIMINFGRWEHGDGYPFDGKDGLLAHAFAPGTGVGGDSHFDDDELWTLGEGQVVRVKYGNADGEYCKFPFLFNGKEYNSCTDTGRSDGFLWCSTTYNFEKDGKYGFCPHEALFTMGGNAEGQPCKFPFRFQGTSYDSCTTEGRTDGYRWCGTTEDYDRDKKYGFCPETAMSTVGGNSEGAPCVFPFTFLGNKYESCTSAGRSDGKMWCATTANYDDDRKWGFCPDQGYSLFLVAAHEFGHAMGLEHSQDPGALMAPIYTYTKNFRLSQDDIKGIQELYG
# Description: fluorogenic peptide substrate assay on MMP-2
# T1 sequence (P22894 100-262 limits assumed): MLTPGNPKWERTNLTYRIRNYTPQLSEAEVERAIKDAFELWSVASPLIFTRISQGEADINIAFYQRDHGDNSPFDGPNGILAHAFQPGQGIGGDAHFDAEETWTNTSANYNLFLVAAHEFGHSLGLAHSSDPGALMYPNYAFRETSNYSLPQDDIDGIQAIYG
Structure (SMILES),IC50 (MMP-8) [µM],IC50 (MMP-9) [µM],IC50 (MMP-13) [µM],IC50 (MMP-2) [µM],"IC50 (MMP-2; OmniMMP 2.5 µM or OmniMMP RED 1 µM, pH 7.5, 1 mM CaCl2, 1 µM ZnCl2, 15 min preincubation, 37 °C) [µM]"
"O=P(O)(O)C(NS(=O)(=O)c1ccc2ccccc2c1)P(=O)(O)O [compound 2, (2-naphthylsulfonylamino)methyl-1,1-bisphosphonic acid]",26.8 ± 0.9,> 100,9.6 ± 0.4,18.7 ± 0.8,
"O=C(Nc1cccc(S(=O)(=O)NC(P(=O)(O)O)P(=O)(O)O)c1)c1ccccc1 [compound 7, (3-benzamidophenylsulfonylamino)methyl-1,1-bisphosphonic acid]",79 ± 8,50 ± 11,28 ± 4,9 ± 0.8,
"O=C(Nc1ccccc1)Nc1ccc(S(=O)(=O)NC(P(=O)(O)O)P(=O)(O)O)cc1 [compound 4, (4-(3-phenylureido)phenylsulfonylamino)methyl-1,1-bisphosphonic acid]",48 ± 15,13.8 ± 0.6,15 ± 6,2.8 ± 0.6,
"Nc1ccc(S(=O)(=O)NC(P(=O)(O)O)P(=O)(O)O)cc1 [compound 1, (4-aminophenylsulfonylamino)methyl-1,1-bisphosphonic acid]",66 ± 8,> 100,68.9 ± 10.2,19 ± 3,
"O=C1c2ccccc2C(=O)N1c1ccc(S(=O)(=O)NC(P(=O)(O)O)P(=O)(O)O)cc1 [compound 5, (4-(1,3-dioxoisoindolin-2-yl)phenylsulfonylamino)methyl-1,1-bisphosphonic acid]",45 ± 5,15 ± 6,18.1 ± 1.5,5.3 ± 0.4,
"O=P(O)(O)C(NS(=O)(=O)c1cccc2ccccc12)P(=O)(O)O [compound 3, (1-naphthylsulfonylamino)methyl-1,1-bisphosphonic acid]",31.3 ± 1.2,57 ± 2,14.6 ± 0.8,15.2 ± 0.5,
O=P(O)(O)C(NS(=O)(=O)c1ccc(-c2ccccc2)cc1)P(=O)(O)O [ML 115],0.4 ± 0.03,> 100,0.74 ± 0.06,,0.14 ± 0.04

# The remaining lines, values ahead:
IC50 (MMP-8) [µM],IC50 (MMP-9) [µM],IC50 (MMP-13) [µM],IC50 (MMP-2) [µM],"IC50 (MMP-2; OmniMMP 2.5 µM or OmniMMP RED 1 µM, pH 7.5, 1 mM CaCl2, 1 µM ZnCl2, 15 min preincubation, 37 °C) [µM]",Structure (SMILES)
16.6 ± 1.9,76 ± 8,9.3 ± 0.5,3.9 ± 0.5,,"O=C(Nc1ccc(S(=O)(=O)NC(P(=O)(O)O)P(=O)(O)O)cc1)c1ccc2ccccc2c1 [compound 13, (4-(2-naphthamido)phenylsulfonylamino)methyl-1,1-bisphosphonic acid]"
0.46 ± 0.11,0.43 ± 0.1,0.61 ± 0.16,1.7 ± 0.3,,"O=C(Nc1ccc(S(=O)(=O)NC(P(=O)(O)O)P(=O)(O)O)cc1)c1ccc([N+](=O)[O-])cc1 [compound 11, (4-(4-nitrobenzamido)phenylsulfonylamino)methyl-1,1-bisphosphonic acid]"
1.88 ± 0.03,2.3 ± 0.1,2 ± 0.7,2.75 ± 0.35,,"O=C(Nc1ccc(S(=O)(=O)NC(P(=O)(O)O)P(=O)(O)O)cc1)c1ccccc1 [compound 6, (4-benzamidophenylsulfonylamino)methyl-1,1-bisphosphonic acid]"
25 ± 12,21.5 ± 0.7,12 ± 5,2.7 ± 1,,"O=C(Nc1ccc(S(=O)(=O)NC(P(=O)(O)O)P(=O)(O)O)cc1)c1cccc2ccccc12 [compound 12, (4-(1-naphthamido)phenylsulfonylamino)methyl-1,1-bisphosphonic acid]"
17 ± 4,> 100,15.9 ± 1.9,4.2 ± 1.3,,"O=C(Nc1ccc(S(=O)(=O)NC(P(=O)(O)O)P(=O)(O)O)cc1)c1cccc(Br)c1 [compound 10, (4-(3-bromobenzamido)phenylsulfonylamino)methyl-1,1-bisphosphonic acid]"
0.78 ± 0.18,0.67 ± 0.25,3.3 ± 0.7,0.958 ± 0.018,,"Cc1ccc(C(=O)Nc2ccc(S(=O)(=O)NC(P(=O)(O)O)P(=O)(O)O)cc2)cc1 [compound 8, (4-(4-methylbenzamido)phenylsulfonylamino)methyl-1,1-bisphosphonic acid]"
0.66 ± 0.13,0.088 ± 0.012,0.14 ± 0.05,0.67 ± 0.16,,"O=C(Nc1ccc(S(=O)(=O)NC(P(=O)(O)O)P(=O)(O)O)cc1)c1ccc(Br)cc1 [compound 9, (4-(4-bromobenzamido)phenylsulfonylamino)methyl-1,1-bisphosphonic acid]"
